Legend:
Assay in all cases: radiometric filter-binding kinase assay, Kinase HotSpot
Conditions in all cases: compound 0.5 µM; ATP 10 µM
[1] = biological target: CDK4 CCND3 (human) (UniProt P30281+P11802)
[2] = biological target: TYRO3 (human) (UniProt Q06418)
[3] = biological target: PASK (human) (UniProt Q96RG2)
[4] = biological target: SIK2 (human) (UniProt Q9H0K1)
[5] = biological target: PLK1 (human) (UniProt P53350)
[6] = biological target: OXSR1 (human) (UniProt O95747)
[7] = biological target: TGFBR1 (human) (UniProt P36897)
[8] = biological target: CHEK1 (human) (UniProt O14757)
[9] = biological target: YES1 (human) (UniProt P07947)
[10] = biological target: TAOK1 (human) (UniProt Q7L7X3)
[11] = biological target: ITK (human) (UniProt Q08881)
[12] = biological target: NEK6 (human) (UniProt Q9HC98)
[13] = biological target: HCK (human) (UniProt P08631)
[14] = biological target: INSR (human) (UniProt P06213)
[15] = biological target: MAPK10 (human) (UniProt P53779)
[16] = biological target: PIM2 (human) (UniProt Q9P1W9)
[17] = biological target: NEK2 (human) (UniProt P51955)
[18] = biological target: MAP3K8 (human) (UniProt P41279)
[19] = biological target: MAP2K1 (human) (UniProt Q02750)
[20] = biological target: RPS6KB1 (human) (UniProt P23443)
[21] = biological target: ULK3 (human) (UniProt Q6PHR2)
[22] = biological target: PIM3 (human) (UniProt Q86V86)
[23] = biological target: PRKCA (human) (UniProt P17252)
[24] = biological target: TYK2 JH1 catalytic (human) (UniProt P29597)
[25] = biological target: IRAK4 (human) (UniProt Q9NWZ3)
[26] = biological target: GRK4 (human) (UniProt P32298)
[27] = biological target: GRK7 (human) (UniProt Q8WTQ7)
[28] = biological target: MYO3B (human) (UniProt Q8WXR4)
[29] = biological target: RPS6KA1 KD1 KD2 (human) (UniProt Q15418)
[30] = biological target: ADRBK2 (human) (UniProt P35626)
[31] = biological target: NEK11 (human) (UniProt Q8NG66)
[32] = biological target: TNK2 (human) (UniProt Q07912)
[33] = biological target: MAP3K5 (human) (UniProt Q99683)
[34] = biological target: PRKD1 (human) (UniProt Q15139)
[35] = biological target: TGFBR2 (human) (UniProt P37173)
[36] = biological target: MAPKAPK3 (human) (UniProt Q16644)
[37] = biological target: NEK3 (human) (UniProt P51956)
[38] = biological target: PBK (human) (UniProt Q96KB5)
[39] = biological target: BTK (human) (UniProt Q06187)
[40] = biological target: MARK4 (human) (UniProt Q96L34)
[41] = biological target: FGFR4 (human) (UniProt P22455)
[42] = biological target: TXK (human) (UniProt P42681)

Sequence of PRKD1 (human) (Q15139 whole entry, looked up): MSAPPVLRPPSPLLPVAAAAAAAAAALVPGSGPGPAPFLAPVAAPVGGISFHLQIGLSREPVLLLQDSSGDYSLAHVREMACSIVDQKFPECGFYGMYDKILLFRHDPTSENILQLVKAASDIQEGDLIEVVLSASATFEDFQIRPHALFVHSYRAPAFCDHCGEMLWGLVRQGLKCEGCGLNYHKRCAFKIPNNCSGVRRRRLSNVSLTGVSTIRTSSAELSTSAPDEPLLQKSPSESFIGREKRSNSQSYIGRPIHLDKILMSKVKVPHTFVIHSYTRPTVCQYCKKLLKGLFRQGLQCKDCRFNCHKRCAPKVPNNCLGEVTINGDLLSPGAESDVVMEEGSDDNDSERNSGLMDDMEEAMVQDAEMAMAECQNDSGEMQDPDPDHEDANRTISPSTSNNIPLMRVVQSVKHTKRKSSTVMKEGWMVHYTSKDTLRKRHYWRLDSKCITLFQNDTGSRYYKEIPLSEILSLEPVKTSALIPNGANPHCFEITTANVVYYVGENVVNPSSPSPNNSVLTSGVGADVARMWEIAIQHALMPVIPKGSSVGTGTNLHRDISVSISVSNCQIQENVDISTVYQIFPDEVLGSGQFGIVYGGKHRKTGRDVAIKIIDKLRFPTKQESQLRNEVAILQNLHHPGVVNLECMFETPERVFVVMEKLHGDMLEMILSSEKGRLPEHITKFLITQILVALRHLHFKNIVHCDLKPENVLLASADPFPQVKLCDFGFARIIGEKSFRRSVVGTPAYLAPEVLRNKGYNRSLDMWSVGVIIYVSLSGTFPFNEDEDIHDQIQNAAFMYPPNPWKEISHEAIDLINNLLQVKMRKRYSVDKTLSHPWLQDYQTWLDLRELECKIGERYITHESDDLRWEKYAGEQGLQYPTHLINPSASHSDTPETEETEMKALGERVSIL
Sequence of ADRBK2 (human) (P35626 whole entry, looked up): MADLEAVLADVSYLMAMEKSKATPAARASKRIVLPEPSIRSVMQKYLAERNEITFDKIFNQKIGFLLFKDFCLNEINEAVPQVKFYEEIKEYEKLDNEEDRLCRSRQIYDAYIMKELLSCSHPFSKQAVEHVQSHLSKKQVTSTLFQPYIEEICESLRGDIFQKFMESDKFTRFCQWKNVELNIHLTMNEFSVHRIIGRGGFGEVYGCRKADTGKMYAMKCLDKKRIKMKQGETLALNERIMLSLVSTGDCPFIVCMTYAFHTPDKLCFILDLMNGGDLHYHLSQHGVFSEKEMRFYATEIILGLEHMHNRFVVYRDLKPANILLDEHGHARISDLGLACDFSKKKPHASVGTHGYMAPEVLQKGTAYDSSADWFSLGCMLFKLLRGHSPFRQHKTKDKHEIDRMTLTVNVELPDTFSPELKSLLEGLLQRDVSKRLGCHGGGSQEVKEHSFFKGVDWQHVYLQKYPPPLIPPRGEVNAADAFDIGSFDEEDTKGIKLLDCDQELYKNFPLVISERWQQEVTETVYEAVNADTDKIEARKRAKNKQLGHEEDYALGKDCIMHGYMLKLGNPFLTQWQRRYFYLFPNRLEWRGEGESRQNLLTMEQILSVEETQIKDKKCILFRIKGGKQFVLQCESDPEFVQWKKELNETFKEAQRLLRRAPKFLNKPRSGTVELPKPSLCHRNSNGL
Sequence of NEK11 (human) (Q8NG66 whole entry, looked up): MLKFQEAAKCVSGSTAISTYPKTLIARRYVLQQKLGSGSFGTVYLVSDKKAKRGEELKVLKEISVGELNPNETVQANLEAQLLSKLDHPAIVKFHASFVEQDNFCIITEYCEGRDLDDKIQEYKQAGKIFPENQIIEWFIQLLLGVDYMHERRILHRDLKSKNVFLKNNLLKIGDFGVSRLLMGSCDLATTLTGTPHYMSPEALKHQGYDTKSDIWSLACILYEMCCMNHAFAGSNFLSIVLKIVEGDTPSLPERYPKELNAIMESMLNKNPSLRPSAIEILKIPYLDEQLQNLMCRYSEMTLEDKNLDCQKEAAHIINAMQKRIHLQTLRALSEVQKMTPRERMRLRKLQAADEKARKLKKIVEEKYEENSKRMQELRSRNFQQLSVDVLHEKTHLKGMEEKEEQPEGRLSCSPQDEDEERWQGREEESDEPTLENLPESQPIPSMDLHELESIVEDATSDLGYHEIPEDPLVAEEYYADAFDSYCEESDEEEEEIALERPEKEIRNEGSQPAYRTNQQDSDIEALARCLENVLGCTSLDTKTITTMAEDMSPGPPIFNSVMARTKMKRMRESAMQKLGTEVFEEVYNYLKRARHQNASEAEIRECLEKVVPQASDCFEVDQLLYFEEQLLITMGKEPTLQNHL
Sequence of GRK4 (human) (P32298 whole entry, looked up): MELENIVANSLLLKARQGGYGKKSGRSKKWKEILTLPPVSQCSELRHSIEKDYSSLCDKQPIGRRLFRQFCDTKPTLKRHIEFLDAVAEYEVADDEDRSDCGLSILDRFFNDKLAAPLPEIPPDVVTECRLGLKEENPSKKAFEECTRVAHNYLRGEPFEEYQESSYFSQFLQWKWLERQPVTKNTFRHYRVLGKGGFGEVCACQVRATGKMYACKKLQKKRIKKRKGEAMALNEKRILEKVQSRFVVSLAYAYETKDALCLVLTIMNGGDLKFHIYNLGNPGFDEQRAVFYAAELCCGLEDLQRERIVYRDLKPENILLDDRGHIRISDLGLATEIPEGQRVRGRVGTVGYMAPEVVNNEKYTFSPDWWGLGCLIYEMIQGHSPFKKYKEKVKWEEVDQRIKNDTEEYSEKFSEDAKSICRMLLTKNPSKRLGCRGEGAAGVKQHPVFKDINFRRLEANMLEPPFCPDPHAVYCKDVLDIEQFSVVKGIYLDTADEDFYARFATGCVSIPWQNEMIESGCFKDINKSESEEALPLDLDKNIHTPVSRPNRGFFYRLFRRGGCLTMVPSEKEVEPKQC
Sequence of MAP3K8 (human) (P41279 whole entry, looked up): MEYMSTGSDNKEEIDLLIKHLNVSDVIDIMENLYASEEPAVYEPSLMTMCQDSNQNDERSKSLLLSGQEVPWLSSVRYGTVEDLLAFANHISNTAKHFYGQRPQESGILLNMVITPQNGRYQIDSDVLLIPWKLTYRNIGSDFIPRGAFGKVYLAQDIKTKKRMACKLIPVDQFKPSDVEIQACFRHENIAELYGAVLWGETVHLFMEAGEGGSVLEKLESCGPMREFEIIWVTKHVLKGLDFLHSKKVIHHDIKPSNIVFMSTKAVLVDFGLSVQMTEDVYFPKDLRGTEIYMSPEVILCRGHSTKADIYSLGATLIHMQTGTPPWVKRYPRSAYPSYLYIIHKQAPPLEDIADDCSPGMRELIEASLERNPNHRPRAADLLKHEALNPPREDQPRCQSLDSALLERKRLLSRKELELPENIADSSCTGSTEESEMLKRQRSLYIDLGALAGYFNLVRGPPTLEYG
Sequence of NEK3 (human) (P51956 whole entry, looked up): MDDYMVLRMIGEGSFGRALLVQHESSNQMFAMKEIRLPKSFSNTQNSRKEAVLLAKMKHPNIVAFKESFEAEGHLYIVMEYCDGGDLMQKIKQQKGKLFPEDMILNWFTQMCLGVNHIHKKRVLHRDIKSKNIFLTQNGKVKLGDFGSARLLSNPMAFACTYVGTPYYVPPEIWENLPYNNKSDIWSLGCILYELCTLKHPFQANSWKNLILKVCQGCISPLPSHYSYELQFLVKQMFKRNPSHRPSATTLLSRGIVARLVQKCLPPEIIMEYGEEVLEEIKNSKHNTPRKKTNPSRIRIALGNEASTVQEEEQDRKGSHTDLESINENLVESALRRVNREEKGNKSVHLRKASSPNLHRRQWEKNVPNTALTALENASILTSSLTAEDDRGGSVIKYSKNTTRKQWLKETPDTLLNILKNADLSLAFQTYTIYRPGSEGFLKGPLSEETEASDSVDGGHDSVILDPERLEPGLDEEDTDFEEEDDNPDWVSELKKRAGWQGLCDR
Sequence of TGFBR1 (human) (P36897 whole entry, looked up): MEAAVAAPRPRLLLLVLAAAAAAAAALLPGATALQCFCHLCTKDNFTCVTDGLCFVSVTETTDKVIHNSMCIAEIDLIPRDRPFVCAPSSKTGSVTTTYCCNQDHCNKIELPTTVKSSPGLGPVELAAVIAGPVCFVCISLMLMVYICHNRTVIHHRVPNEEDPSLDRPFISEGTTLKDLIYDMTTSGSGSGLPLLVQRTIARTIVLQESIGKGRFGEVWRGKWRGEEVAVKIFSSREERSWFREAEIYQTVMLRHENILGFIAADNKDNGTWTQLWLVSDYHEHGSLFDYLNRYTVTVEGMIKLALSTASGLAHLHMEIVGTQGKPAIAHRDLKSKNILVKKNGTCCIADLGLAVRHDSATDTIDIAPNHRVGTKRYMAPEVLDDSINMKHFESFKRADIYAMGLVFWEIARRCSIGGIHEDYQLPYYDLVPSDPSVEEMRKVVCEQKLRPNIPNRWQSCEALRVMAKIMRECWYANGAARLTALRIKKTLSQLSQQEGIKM
Sequence of PBK (human) (Q96KB5 whole entry, looked up): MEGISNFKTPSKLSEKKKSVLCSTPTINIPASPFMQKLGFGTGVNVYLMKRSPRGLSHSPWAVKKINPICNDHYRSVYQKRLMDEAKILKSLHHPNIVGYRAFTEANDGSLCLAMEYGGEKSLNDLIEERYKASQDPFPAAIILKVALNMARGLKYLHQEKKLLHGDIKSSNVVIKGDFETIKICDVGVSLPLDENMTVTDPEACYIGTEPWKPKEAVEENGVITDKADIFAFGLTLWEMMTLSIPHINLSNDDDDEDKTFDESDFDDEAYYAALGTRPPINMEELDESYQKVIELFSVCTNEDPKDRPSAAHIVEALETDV
Sequence of PIM2 (human) (Q9P1W9 whole entry, looked up): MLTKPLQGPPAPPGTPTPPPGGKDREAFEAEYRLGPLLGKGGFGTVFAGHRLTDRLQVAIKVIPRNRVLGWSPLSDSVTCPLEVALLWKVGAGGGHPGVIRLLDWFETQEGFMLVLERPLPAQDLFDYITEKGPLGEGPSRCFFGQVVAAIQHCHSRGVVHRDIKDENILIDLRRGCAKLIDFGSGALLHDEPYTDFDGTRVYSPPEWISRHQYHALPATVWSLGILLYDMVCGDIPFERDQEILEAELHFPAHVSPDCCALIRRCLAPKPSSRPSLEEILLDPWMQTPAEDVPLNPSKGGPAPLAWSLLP

N#CC(C#N)=C(N)/C(C#N)=C/c1ccc(O)cc1
residual activity [1]: 97.1%
residual activity [2]: 99.3%
residual activity [3]: 82.9%
residual activity [4]: 87.7%
residual activity [5]: 60.8%
residual activity [6]: 72.2%
residual activity [7]: 93%
residual activity [8]: 98.3%
residual activity [9]: 100%
residual activity [10]: 93.2%
residual activity [11]: 98.7%
residual activity [12]: 97.3%
residual activity [13]: 98.6%
residual activity [14]: 94.2%
residual activity [15]: 98.8%
residual activity [16]: 88.2%
residual activity [17]: 102%
residual activity [18]: 96%
residual activity [19]: 93.7%
residual activity [20]: 89.5%
residual activity [21]: 67.8%
residual activity [22]: 91.3%
residual activity [23]: 97.4%
residual activity [24]: 97.4%
residual activity [25]: 92.6%
residual activity [26]: 99.6%
residual activity [27]: 104%
residual activity [28]: 88.1%
residual activity [29]: 93.8%
residual activity [30]: 96.7%
residual activity [31]: 97.2%
residual activity [32]: 98.1%
residual activity [33]: 103%
residual activity [34]: 101%
residual activity [35]: 113%
residual activity [36]: 99.9%
residual activity [37]: 98%
residual activity [38]: 96.4%
residual activity [39]: 99.7%
residual activity [40]: 94.3%
residual activity [41]: 91.1%
residual activity [42]: 100%

COc1cc2ncnc(Nc3cccc(Cl)c3)c2cc1OC
residual activity [1]: 103%
residual activity [2]: 96.7%
residual activity [3]: 90.2%
residual activity [4]: 98.7%
residual activity [5]: 105%
residual activity [6]: 92%
residual activity [7]: 100%
residual activity [8]: 93.7%
residual activity [9]: 59.9%
residual activity [10]: 108%
residual activity [11]: 93.8%
residual activity [12]: 105%
residual activity [13]: 61.8%
residual activity [14]: 77.6%
residual activity [15]: 89%
residual activity [16]: 104%
residual activity [17]: 88.3%
residual activity [18]: 104%
residual activity [19]: 98.5%
residual activity [20]: 88.5%
residual activity [21]: 77.3%
residual activity [22]: 99.4%
residual activity [23]: 111%
residual activity [24]: 98.1%
residual activity [25]: 77.7%
residual activity [26]: 102%
residual activity [27]: 85.4%
residual activity [28]: 81.2%
residual activity [29]: 87.3%
residual activity [30]: 99.9%
residual activity [31]: 96.9%
residual activity [32]: 28.6%
residual activity [33]: 106%
residual activity [34]: 92.3%
residual activity [35]: 94.5%
residual activity [36]: 92.7%
residual activity [37]: 84.3%
residual activity [38]: 70.9%
residual activity [39]: 76.7%
residual activity [40]: 98.5%
residual activity [41]: 78.7%
residual activity [42]: 75%

CC(C)N(CCC(=O)c1ccc2ccccc2c1)Cc1ccccc1
residual activity [1]: 92.4%
residual activity [2]: 98.9%
residual activity [3]: 97.3%
residual activity [4]: 103%
residual activity [5]: 97.8%
residual activity [6]: 106%
residual activity [7]: 92.5%
residual activity [8]: 106%
residual activity [9]: 100%
residual activity [10]: 94.9%
residual activity [11]: 89.9%
residual activity [12]: 109%
residual activity [13]: 94.9%
residual activity [14]: 107%
residual activity [15]: 91.1%
residual activity [16]: 104%
residual activity [17]: 86.9%
residual activity [18]: 94.6%
residual activity [19]: 82.5%
residual activity [20]: 97.2%
residual activity [21]: 95.8%
residual activity [22]: 105%
residual activity [23]: 107%
residual activity [24]: 103%
residual activity [25]: 103%
residual activity [26]: 94.9%
residual activity [27]: 121%
residual activity [28]: 93.5%
residual activity [29]: 97.6%
residual activity [30]: 88.9%
residual activity [31]: 105%
residual activity [32]: 92.4%
residual activity [33]: 103%
residual activity [34]: 98%
residual activity [35]: 98.8%
residual activity [36]: 95.7%
residual activity [37]: 101%
residual activity [38]: 108%
residual activity [39]: 87.5%
residual activity [40]: 89.3%
residual activity [41]: 103%
residual activity [42]: 97.1%

c1ccc(-c2n[nH]cc2-c2ccnc3ccccc23)nc1
residual activity [1]: 102%
residual activity [2]: 124%
residual activity [3]: 77.1%
residual activity [4]: 94.8%
residual activity [5]: 102%
residual activity [6]: 85.3%
residual activity [7]: 41.6%
residual activity [8]: 99.7%
residual activity [9]: 93.3%
residual activity [10]: 93%
residual activity [11]: 102%
residual activity [12]: 106%
residual activity [13]: 98.5%
residual activity [14]: 86.7%
residual activity [15]: 92.9%
residual activity [16]: 115%
residual activity [17]: 97%
residual activity [18]: 91.1%
residual activity [19]: 93.7%
residual activity [20]: 106%
residual activity [21]: 85.3%
residual activity [22]: 90.6%
residual activity [23]: 98.5%
residual activity [24]: 101%
residual activity [25]: 87.7%
residual activity [26]: 94.3%
residual activity [27]: 102%
residual activity [28]: 91.7%
residual activity [29]: 88.1%
residual activity [30]: 103%
residual activity [31]: 91.8%
residual activity [32]: 96.2%
residual activity [33]: 105%
residual activity [34]: 63%
residual activity [35]: 109%
residual activity [36]: 92.9%
residual activity [37]: 90.2%
residual activity [38]: 91.9%
residual activity [39]: 104%
residual activity [40]: 105%
residual activity [41]: 80.6%
residual activity [42]: 89.1%

Source: the kinase profiling compilation of Christmann-Franck et al. (2016)
